Assay results: ChEMBL document CHEMBL4732091, “Design, synthesis and biological evaluation of novel thiosemicarbazone-indole derivatives targeting prostate cancer cells” (Eur J Med Chem, 2021)
pIC50: −log10 of the molar value. The source made the active and inactive calls. No cut-off for these calls is given here.

Key:
DU-145 [1] = experiment: Antiproliferative activity against human DU-145 cells assessed as inhibition of cell proliferation measured after 24 to 72 hrs by MTT assay; assay type: functional, cell-based; details: dose 0.156-20 µM, time 24-72 hrs
PC-3 [2] = experiment: Antiproliferative activity against human PC-3 cells assessed as inhibition of cell proliferation measured after 72 hrs by MTT assay; assay type: functional, cell-based; details: PC-3, 72 h
ECa-109 cell line = experiment: Antiproliferative activity against human ECa-109 cell line cells assessed as inhibition of cell proliferation measured after 72 hrs by MTT assay; assay type: functional, cell-based; details: ECa-109, 72 h
MGC-803 = experiment: Antiproliferative activity against human MGC-803 cell line cells assessed as inhibition of cell proliferation measured after 72 hrs by MTT assay; assay type: functional, cell-based; details: MGC-803, 72 h
MCF7 = experiment: Antiproliferative activity against human MCF7 cell line cells assessed as inhibition of cell proliferation measured after 72 hrs by MTT assay; assay type: functional, cell-based; details: MCF7, 72 h
PC-3 [3] = experiment: Antiproliferative activity against human PC-3 cells assessed as reduction in colony formation at 12.5 to 50 nM measured after 6 days by crystal violet staining based colony assay; assay type: functional, cell-based; details: dose 12.5-50 nM, time 6.0 day
PC-3 [4] = experiment: Induction of cell cycle arrest in human PC-3 cells assessed as accumulation of cells in G1/S phase at 500 nM measured after 48 hrs by propidium iodide staining based flowcytometry method (reference value: 19.23%); assay type: functional
PC-3 [5] = experiment: Cell cycle arrest in human PC-3 cells assessed as accumulation of cells in G1/S phase by measuring upregulation of p27 measured after 48 hrs by Western blot assay; assay type: functional, cell-based; details: dose 125-500 nM
PC-3 [6] = experiment: Induction of apoptosis in human PC-3 cells assessed as cell rounding at 25 to 100 nM measured after 72 hrs by Hoechst staining based fluorescence microscope method; assay type: functional; details: dose 25-100 nM
PC-3 [7] = experiment: Induction of apoptosis in human PC-3 cells assessed as late apoptotic cells at 25 nM measured after 72 hrs by Annexin V-FITC/propidium iodide staining based flow cytometry method (reference value: 1.01 %); assay type: functional
PC-3 [8] = experiment: Induction of apoptosis in human PC-3 cells assessed as viable cells at 50 nM measured after 72 hrs by Annexin V-FITC/propidium iodide staining based flow cytometry method (reference value: 97.2 %); assay type: functional; details: read-out: Activity
PC-3 [9] = experiment: Induction of apoptosis in human PC-3 cells assessed as late apoptotic cells at 50 nM measured after 72 hrs by Annexin V-FITC/propidium iodide staining based flow cytometry method (reference value: 1.01 %); assay type: functional
DU-145 [10] = experiment: Induction of apoptosis in human DU-145 cells assessed as early apoptotic cells at 0.5 uM measured after 72 hrs by Annexin V-FITC/propidium iodide staining based flow cytometry method (reference value: 0.835 %); assay type: functional
DU-145 [11] = experiment: Induction of apoptosis in human DU-145 cells assessed as necrotic cells at 0.5 uM measured after 72 hrs by Annexin V-FITC/propidium iodide staining based flow cytometry method (reference value: 1.13 %); assay type: functional
DU-145 [12] = experiment: Induction of apoptosis in human DU-145 cells assessed as viable cells at 1 uM measured after 72 hrs by Annexin V-FITC/propidium iodide staining based flow cytometry method (reference value: 96.3 %); assay type: functional; details: read-out: Activity
DU-145 [13] = experiment: Induction of apoptosis in human DU-145 cells assessed as increased cleaved caspase 9/3 at 0.5 to 2 uM measured by Western blot assay; assay type: functional, cell-based; details: dose 0.5-2 µM
PC-3 [14] = experiment: Induction of apoptosis in human PC-3 cells assessed as increase in p53 expression at 25 to 100 nM measured by Western blot assay; assay type: functional, cell-based; details: dose 25-100 nM
PC-3 [15] = experiment: Induction of ROS generation in human PC-3 cells assessed as increase in intracellular ROS level at 250 nM pretreated with NAC followed by compound treatment measured after 48 hrs by DCFH-DA staining based flowcytometry method; assay type: functional, cell-based
DU-145 [16] = experiment: Activation of MAPK signaling in human DU-145 cells assessed as increase in phosphorylated ERK 1/2 (Thr 202/Tyr 204) at 125 to 500 nM measured by Western blot assay; assay type: cell-based; details: filed as activator, dose 125-500 nM
DU-145 [17] = experiment: Activation of MAPK signaling in human DU-145 cells assessed as increase in phosphorylated JNK (Thr 183/Tyr 185) at 125 to 500 nM measured by Western blot assay; assay type: cell-based; details: filed as activator, dose 125-500 nM
DU-145 [18] = experiment: Activation of MAPK signaling in human DU-145 cells assessed as increase in phosphorylated p38 (Thr 180/Tyr 182) at 125 to 500 nM measured by Western blot assay; assay type: cell-based; details: filed as activator, dose 125-500 nM
[19] = Toxicity in C57BL/6 mouse assessed as effect on liver at 2 mg/kg, IG measured after 2 weeks by hematoxylin and eosin staining based imaging analysis; assay type: organism-based; details: in vivo, po, 336 h
[20] = Toxicity in C57BL/6 mouse assessed as effect on spleen at 2 mg/kg, IG measured after 2 weeks by hematoxylin and eosin staining based imaging analysis; assay type: organism-based; details: in vivo, po, 336 h
[21] = Toxicity in C57BL/6 mouse assessed as effect on kidney at 2 mg/kg, IG measured after 2 weeks by hematoxylin and eosin staining based imaging analysis; assay type: organism-based; details: in vivo, po, 336 h
PC-3 [22] = experiment: Antitumour activity against human PC-3 cells xenografted in BALB/c-NU mouse assessed as reduction in tumour growth at 12.5 mg/kg, IG qd measured after 21 days relative to control; assay type: functional; set-up: scale not given: the % may be the effect or the level left; details: time 21 day
PC-3 [23] = experiment: Antitumour activity against human PC-3 cells xenografted in BALB/c-NU mouse assessed as reduction in tumour growth at 25 mg/kg, IG qd measured after 21 days relative to control; assay type: functional; set-up: scale not given: the % may be the effect or the level left; details: time 21 day
[24] = Toxicity in BALB/c-NU mouse assessed as changes in body weight at 12.5 to 25 mg/kg, IG qd for 21 days measured every 2 days; assay type: organism-based; details: in vivo, po, 504 h, dose 12.5-25 mg/kg, time 21 day
PC-3 [25] = experiment: Antiproliferative activity against human PC-3 cells assessed as inhibition of cell proliferation at 0.156 to 20 uM by MTT assay; assay type: functional, cell-based; details: dose 0.156-20 µM, time 24-72 hrs, TDE = time-dependent effect
DU-145 [26] = experiment: Antiproliferative activity against human DU-145 cells assessed as inhibition of cell proliferation at 0.156 to 20 uM by MTT assay; assay type: functional, cell-based; details: dose 0.156-20 µM, time 24-72 hrs, TDE = time-dependent effect
PC-3 [27] = experiment: Induction of apoptosis in human PC-3 cells assessed as nuclear fragmentation at 25 to 100 nM measured after 72 hrs by Hoechst staining based fluorescence microscope method; assay type: functional, cell-based; details: dose 25-100 nM
PC-3 [28] = experiment: Induction of ROS generation in human PC-3 cells assessed as intracellular ROS level at 125 nM measured after 48 hrs by DCFH-DA staining based flowcytometry method (reference value: 55.2 %); assay type: functional
DU-145 [29] = experiment: Induction of ROS generation in human DU-145 cells assessed as intracellular ROS level at 3 uM measured after 48 hrs by DCFH-DA staining based flowcytometry method (reference value: 52 %); assay type: functional
PC-3 [30] = experiment: Induction of ROS generation in human PC-3 cells assessed as intracellular ROS level at 250 nM pretreated with NAC followed by compound treatment measured after 48 hrs by DCFH-DA staining based flowcytometry method (reference value: 49.9 %); assay type: functional

- pIC50 (PC-3 [2]): 7.27
- pIC50 (MGC-803): 5.33
- pIC50 (MCF7): 5.27
Compound: Cc1ccc(/C=N/NC(=S)Nc2ccc(C(=O)NCCc3c(C)[nH]c4ccccc34)cc2)nc1
- inhibition (DU-145 [1]): Dose-dependent effect
- pIC50 (ECa-109 cell line): 5.31
- inhibition (PC-3 [3]): Active
- Activity (PC-3 [4]): 49.02%
- Activity (PC-3 [5]): Active
- Activity (PC-3 [6]): Active
- Activity (PC-3 [7]): 4.36%
- viability at 0.05 µM (PC-3 [8]): 64%
- Activity (PC-3 [9]): 33.5%
- Activity (DU-145 [10]): 0.41%
- Activity (DU-145 [11]): 1.95%
- viability at 1 µM (DU-145 [12]): 62.1%
- Activity (DU-145 [13]): Active
- Activity (PC-3 [14]): Active
- Activity (PC-3 [15]): inactive
- Activity (DU-145 [16]): Active
- Activity (DU-145 [17]): Active
- Activity (DU-145 [18]): Active
- Activity [19]: Non-Toxic
- Activity [20]: Non-Toxic
- Activity [21]: Non-Toxic
- Activity (PC-3 [22]): 53.6%
- Activity (PC-3 [23]): 43.4%
- Activity [24]: Non-Toxic
- Activity (PC-3 [25]): Tde
- Activity (DU-145 [26]): Tde
- Activity (PC-3 [27]): Active
- Activity (PC-3 [28]): 75.4%
- Activity (DU-145 [29]): 75.1%
- Activity (PC-3 [30]): 74.5%
